In patent publication US8710043B2, “TRPM8 antagonists and their use in treatments” (Amgen Inc., priority 2011, dated 2014) one finds IC50 data, which are given here for 13 compounds.

SMILES strings stand for the structures.

In this assay the target is T1, human TRPM8 (Homo sapiens, UniProt Q7Z2W7).
T1 construct: expressed in transfected cells; host or cells: Chinese hamster ovary (CHO) cells, T-REx tetracycline-inducible system, co-transfected with aequorin
T1 sequence (Q7Z2W7 whole entry): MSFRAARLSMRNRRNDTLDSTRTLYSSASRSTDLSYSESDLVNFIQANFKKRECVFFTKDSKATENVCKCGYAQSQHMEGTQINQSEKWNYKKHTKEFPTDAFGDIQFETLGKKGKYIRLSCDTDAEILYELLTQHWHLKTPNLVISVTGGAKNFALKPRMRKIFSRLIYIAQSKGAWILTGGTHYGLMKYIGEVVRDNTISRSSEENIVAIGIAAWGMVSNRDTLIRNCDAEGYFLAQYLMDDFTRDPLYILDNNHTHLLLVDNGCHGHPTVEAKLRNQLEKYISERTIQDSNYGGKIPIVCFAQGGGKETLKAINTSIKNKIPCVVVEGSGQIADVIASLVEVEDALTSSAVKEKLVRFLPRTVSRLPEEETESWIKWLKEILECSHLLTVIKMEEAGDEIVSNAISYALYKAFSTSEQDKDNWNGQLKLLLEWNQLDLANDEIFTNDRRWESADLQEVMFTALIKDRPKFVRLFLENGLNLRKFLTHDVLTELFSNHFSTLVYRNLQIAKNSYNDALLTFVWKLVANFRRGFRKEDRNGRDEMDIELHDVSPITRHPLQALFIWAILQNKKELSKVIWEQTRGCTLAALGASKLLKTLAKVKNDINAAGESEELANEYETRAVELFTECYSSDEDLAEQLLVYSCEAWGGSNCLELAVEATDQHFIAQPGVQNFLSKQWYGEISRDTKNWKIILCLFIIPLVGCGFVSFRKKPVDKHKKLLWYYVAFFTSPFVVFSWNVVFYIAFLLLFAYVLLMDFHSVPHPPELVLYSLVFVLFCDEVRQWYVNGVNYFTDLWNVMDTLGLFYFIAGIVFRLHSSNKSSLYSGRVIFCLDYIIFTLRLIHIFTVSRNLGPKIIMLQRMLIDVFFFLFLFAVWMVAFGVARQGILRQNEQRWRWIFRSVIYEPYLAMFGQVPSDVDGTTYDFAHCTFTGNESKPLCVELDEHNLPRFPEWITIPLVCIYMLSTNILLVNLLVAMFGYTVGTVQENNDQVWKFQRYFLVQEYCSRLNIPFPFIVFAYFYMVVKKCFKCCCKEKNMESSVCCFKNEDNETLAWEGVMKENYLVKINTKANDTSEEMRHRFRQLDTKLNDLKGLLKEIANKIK
Put plainly: Luminescence readout assay for measuring intracellular calcium, icilin activation. It counts as cell-based. To be noted: CHO cells expressing human TRPM8, aequorin luminescence, 1 μM icilin activation; read-out: hTRPM8 IC50. The protocol: Luminescence Readout Assay for Measuring Intracellular Calcium.
A stable Chinese hamster ovary cell line expressing human TRPM8 was generated using tetracycline inducible T-REx™ expression system from Invitrogen, Inc. (Carlsbad, Calif.). […] Twenty four hours before the assay, cells were seeded in 96-well plates and TRPM8 expression was induced with 0.5 μg/mL tetracycline. […] Potential antagonists were added 2.5 min prior to the addition of agonist, 1 μM icilin, 100 μM L-menthol, or 1 min prior to the addition of cold buffer (<10° C.). The luminescence was measured by a CCD camera based FLASH-luminometer built by Amgen, Inc. A cooling device attached to FLASH luminometer was used for cold activation.
On to `Cc1c[nH]c(C(=O)N[C@@H](c2ccc(OC(F)(F)F)c(F)c2)c2ncccc2F)n1` [Example 388, (S)-N-((3-fluoro-4-(trifluoromethoxy)phenyl)(3-fluoropyridin-2-yl)methyl)-4-methyl-1H-imidazole-2-carboxamide 2,2,2-trifluoroacetate], for which the IC50 is 2.98 µM.

Take `O=C(N[C@@H](c1ccc(C(F)(F)F)cc1)c1ncccc1C(F)(F)F)c1cccc(F)c1` [Example 227, (S)-3-fluoro-N-((4-(trifluoromethyl)phenyl)(3-(trifluoromethyl)pyridin-2-yl)methyl)benzamide]: the IC50 amounted to 0.0414 µM.

Turning to `O=C(O)c1ccc(C(=O)N[C@@H](c2ccc(OC(F)(F)F)cc2)c2ncccc2F)nc1` [Example 272, (S)-6-(((3-Fluoropyridin-2-yl)(4-(trifluoromethoxy)phenyl)-methyl)carbamoyl)nicotinic Acid], the IC50 was found to be 0.0119 µM.

As for `O=C(N[C@@H](c1ccc(C(F)(F)F)cc1)c1ncccc1C(F)(F)F)c1ccc(Cl)cc1` [Example 185, (S)-4-chloro-N-((4-(trifluoromethyl)phenyl)(3-(trifluoromethyl)pyridin-2-yl)methyl)benzamide], the IC50 was determined as 0.029 µM.

As to `O=C(N[C@@H](c1ccc(C(F)(F)F)cc1)c1ncccc1C(F)(F)F)c1cccs1` [Example 138, (S)-N-((4-(trifluoromethyl)phenyl)(3-(trifluoromethyl)pyridin-2-yl)methyl)thiophene-2-carboxamide], the IC50 came out at 0.0464 µM.

As for `O=C(CC1CCOC1)N[C@@H](c1ccc(C(F)(F)F)cc1)c1ncccc1C(F)(F)F` (stereo partly drawn) [Example 157, 2-(THF-3-yl)-N-((S)-(4-(trifluoromethyl)phenyl)(3-(trifluoromethyl)pyridin-2-yl)methyl)acetamide], the IC50 worked out at 0.716 µM.

For the compound `O=C(N[C@@H](c1ccc(C(F)(F)F)cc1)c1ncccc1F)c1ccc2c(Cl)ccnc2c1` [Example 120, (S)-4-chloro-N-((3-fluoropyridin-2-yl)(4-(trifluoromethyl)phenyl)methyl)quinoline-7-carboxamide 2,2,2-trifluoroacetate], the IC50 is 0.0594 µM.

In the case of `COc1ccncc1C(=O)N[C@@H](c1ccc(C(F)(F)F)cc1)c1ncccc1C(F)(F)F` [Example 55, (S)-4-methoxy-N-((4-(trifluoromethyl)phenyl)(3-(trifluoromethyl)pyridin-2-yl)methyl)nicotinamide], the half-maximal inhibitory concentration (IC50) worked out at 0.0304 µM.

With `O=C1CCC(C(=O)N[C@@H](c2ccc(C(F)(F)F)cc2)c2ncccc2C(F)(F)F)CN1` (stereo partly drawn) [Example 65, 6-oxo-N-((S)-(4-(trifluoromethyl)phenyl)(3-(trifluoromethyl)pyridin-2-yl)methyl)piperidine-3-carboxamide], the IC50 amounted to 0.245 µM.

`O=C(N[C@@H](c1ccc(OC(F)(F)F)cc1)c1ncccc1F)c1cccs1` [Example 374, (S)-N-((3-fluoropyridin-2-yl)(4-(trifluoromethoxy)phenyl)methyl)thiophene-2-carboxamide]: the IC50 was found to be 0.0524 µM.

As for `O=C(N[C@@H](c1ccc(C(F)(F)F)cc1)c1ncccc1C(F)(F)F)c1cc(O)ccn1` [Example 62, (S)-4-hydroxy-N-((4-(trifluoromethyl)phenyl)(3-(trifluoromethyl)pyridin-2-yl)methyl)picolinamide], the IC50 amounted to 0.172 µM.

On to `COc1ccc([C@H](NC(=O)c2ccc(=O)[nH]c2)c2ncccc2F)cc1` [Example 342, (S)-N-((3-fluoropyridin-2-yl)(4-methoxyphenyl)methyl)-6-oxo-1,6-dihydropyridine-3-carboxamide], for which the IC50 was 0.255 µM.

As to `C[C@H](O)Cn1cc(C(=O)N[C@@H](c2ccc(OC(F)(F)F)c(F)c2)c2ncccc2F)ccc1=O` [Example 298, N-((S)-(3-fluoro-4-(trifluoromethoxy)phenyl)(3-fluoropyridin-2-yl)methyl)-1-((S)-2-hydroxypropyl)-6-oxo-1,6-dihydropyridine-3-carboxamide], the IC50 is 0.0361 µM.

Usually IC50 stands for the midpoint of a concentration-inhibition curve.
